IC50 data for 4 compounds are collected here from BindingDB's records for PubMed 36970145 (n/a, 2023).

The structures appear in SMILES notation.

A word on the IC50: it is the concentration that gives 50% inhibition. A higher IC50 goes with weaker potency in that assay.

A short description of the experiment: Inhibition of human 20S immuno proteosome beta5i subunit using Suc-LLVY-AMC as substrate measured after 10 mins by fluorescence based analysis.
For the compound `COc1ccccc1NC(=O)Nc1ccc2n(c1=O)C[C@@H]1C[C@H]2CN(C(=O)c2ccc3ccccc3c2)C1`, the 50% inhibitory concentration (IC50) amounted to 5.6 µM. This lies in the single-digit micromolar range.

For `O=C(Nc1ccccc1)Nc1ccc2n(c1=O)C[C@@H]1C[C@H]2CN(C(=O)c2ccc3ccccc3c2)C1`, half-maximal inhibition (IC50) required 31.6 µM.

The compound `O=C(Nc1ccc(Cl)cc1)Nc1ccc2n(c1=O)C[C@@H]1C[C@H]2CN(C(=O)c2ccc3ccccc3c2)C1` came in with an IC50 of 8.44 µM.

`N#Cc1cccc(NC(=O)Nc2ccc3n(c2=O)C[C@@H]2C[C@H]3CN(C(=O)c3ccc4ccccc4c3)C2)c1`: the IC50 worked out at 22.1 µM.
